Source: US11618747B2, “LXR modulators with bicyclic core moiety” (OrsoBio, Inc., priority 2018, dated 2023)

Legend:
[1] = target: T1, full length (FL) LXRβ (Homo sapiens, UniProt P55055, DUP175-175); test: LXR Gal4 reporter transient transfection assay (FL-M2H Gal4β); assay type: cell-based; details: HEK293 cells, full length LXRβ; read-out: FL-M2H Gal4β (EC50 range)
T1 construct: the full length (FL) proteins of LXRα (amino acids 1-447); NP005684; NP009052; expressed in transfected cells; host or cells: HEK293
T1 sequence (P55055 with tags, fused parts or gaps DUP175-175): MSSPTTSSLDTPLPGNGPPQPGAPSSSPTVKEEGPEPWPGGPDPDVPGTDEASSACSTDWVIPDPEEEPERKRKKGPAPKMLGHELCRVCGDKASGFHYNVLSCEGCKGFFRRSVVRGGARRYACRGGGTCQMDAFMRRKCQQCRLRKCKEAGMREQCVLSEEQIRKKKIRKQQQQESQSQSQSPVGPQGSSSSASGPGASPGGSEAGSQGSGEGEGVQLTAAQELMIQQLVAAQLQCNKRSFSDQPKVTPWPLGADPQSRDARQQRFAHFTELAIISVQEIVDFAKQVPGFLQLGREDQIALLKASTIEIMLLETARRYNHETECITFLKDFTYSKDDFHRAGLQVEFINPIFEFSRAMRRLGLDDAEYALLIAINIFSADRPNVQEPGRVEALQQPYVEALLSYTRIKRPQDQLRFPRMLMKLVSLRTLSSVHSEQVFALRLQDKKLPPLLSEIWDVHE
Procedure: (§1) The tested compounds were usually dissolved, tested and stored as 20 mM stock solutions in DMSO. Since sulfonyl acetic acid derivatives tend to decarboxylate under these conditions, these stock solutions were prepared, tested and stored as 20 mM DMSO stock solutions containing 100 mM trifluoroacetic Acid (5 equivalents). Sulfonyl acetic acid derivatives are shelf stable as solid at rt for long time as reported by Griesbrecht et al. (Synlett 2010:374) or Faucher et al. (J. Med. Chem. 2004; 47:18).
(§2) LXR Gal4 Reporter Transient Transfection Assays
(§3) LXRα and LXRβ activity status was determined via detection of interaction with coactivator and corepressor proteins in mammalian two-hybrid experiments (M2H). For this, via transient transfection the full length (FL) proteins of LXRα (amino acids 1-447; NP005684; SEQ ID NO:1) or LXRβ-(amino acids 1-461; NP009052; SEQ ID NO:2) or the ligand-binding domains (LBD) of LXRα (amino acids 155-447 SEQ ID NO:3) or LXRβ (amino acids 156-461; SEQ ID NO:4) were expressed from pCMV-AD (Stratagene) as fusions to the transcriptional activation domain of NFkB. As cofactors, domains of either the steroid receptor coactivator 1 (SRC1; amino acids 552-887; SEQ ID NO:5) or of the corepressor NCoR (amino acids 1906-2312; NP006302; SEQ ID NO:6) were expressed as fusions to the DNA binding domain of the yeast transcription factor GAL4 (from pCMV-BD; Stratagene). Interaction was monitored via activation of a coexpressed Firefly Luciferase Reporter gene under control of a promoter containing repetitive GAL4 response elements (vector pFRLuc; Stratagene). Transfection efficiency was controlled via cotransfection of constitutively active pRL-CMV Renila reniformis luciferase reporter (Promega). HEK293 cells were grown in minimum essential medium (MEM) with 2 mM L-glutamine and Earle's balanced salt solution supplemented with 8.3% fetal bovine serum, 0.1 mM non-essential amino acids, 1 mM sodium pyruvate, at 37° C. in 5% CO2. 3.5×10^4 cells/well were plated in 96-well cell culture plates in growth medium supplemented with 8.3% fetal bovine serum for 16-20 h to ˜90% confluency. For transfection, medium was taken off and LXR and cofactor expressing plasmids as well as the reporter plasmids are added in 30 μL OPTIMEM/well including polyethylene-imine (PEI) as vehicle. Typical amounts of plasmids transfected/well: pCMV-AD-LXR (5 ng), pCMV-BD-cofactor (5 ng), pFR-Luc (100 ng), pRL-CMV (0.5 ng). Compound stocks were prepared in DMSO, prediluted in MEM to a total volume of 120 μL, and added 4 h after addition of the transfection mixture (final vehicle concentration not exceeding 0.2%). Cells were incubated for additional 16 h, lysed for 10 min in 1× Passive Lysis Buffer (Promega) and Firefly and Renilla luciferase activities were measured sequentially in the same cell extract using buffers containing D-luciferine and coelenterazine, respectively. Measurements of luminescence were done in a BMG-luminometer.

[2] = target: T2, full length (FL) LXRα (Homo sapiens, UniProt Q13133); test: LXR Gal4 reporter transient transfection assay (FL-M2H Gal4α); assay type: cell-based; details: HEK293 cells, full length LXRα; read-out: FL-M2H Gal4α (EC50 range)
T2 construct: the full length (FL) proteins of LXRα (amino acids 1-447); NP005684; expressed in transfected cells; host or cells: HEK293
T2 sequence (Q13133 1-447): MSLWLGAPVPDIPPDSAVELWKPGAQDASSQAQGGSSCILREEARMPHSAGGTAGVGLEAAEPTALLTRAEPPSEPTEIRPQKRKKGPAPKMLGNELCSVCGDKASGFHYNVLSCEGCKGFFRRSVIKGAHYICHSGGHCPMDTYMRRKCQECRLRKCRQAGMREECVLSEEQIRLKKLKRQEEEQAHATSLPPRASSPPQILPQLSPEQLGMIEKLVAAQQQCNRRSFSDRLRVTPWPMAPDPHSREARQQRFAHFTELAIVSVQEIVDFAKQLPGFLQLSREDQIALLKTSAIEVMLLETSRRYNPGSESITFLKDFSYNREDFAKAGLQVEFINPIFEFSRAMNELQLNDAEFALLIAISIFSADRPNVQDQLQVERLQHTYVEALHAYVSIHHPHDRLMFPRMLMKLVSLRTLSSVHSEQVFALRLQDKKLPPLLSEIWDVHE
Procedure: as §1, §2, §3

[3] = target: T3, LXRβ ligand-binding domain (Homo sapiens, UniProt P55055, DUP175-175); test: TR-FRETβ activity assay (NCoA3 coactivator peptide recruitment); assay type: biochemical; details: TR-FRET, 1 μM 24(S)-25-epoxycholesterol prestimulation; read-out: FRETβ (EC50 range)
T3 construct: amino acids 156-461; NP009052; made in house; host or cells: E. coli
T3 sequence (P55055 with tags, fused parts or gaps DUP175-175 limits assumed): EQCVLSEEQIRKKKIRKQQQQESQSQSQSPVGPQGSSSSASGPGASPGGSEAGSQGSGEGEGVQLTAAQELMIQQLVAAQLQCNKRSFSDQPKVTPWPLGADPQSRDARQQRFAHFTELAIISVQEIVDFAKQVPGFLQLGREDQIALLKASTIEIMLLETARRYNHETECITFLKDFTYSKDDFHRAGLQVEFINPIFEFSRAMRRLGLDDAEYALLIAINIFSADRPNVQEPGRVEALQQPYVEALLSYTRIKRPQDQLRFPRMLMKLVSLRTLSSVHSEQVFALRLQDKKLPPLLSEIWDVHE
Procedure: as §1
Recombinant GST-LXRPβ ligand-binding domain (LBD; amino acids 156-461; NP009052; SEQ ID NO:4) was expressed in E. coli and purified via gluthatione-sepharose affinity chromatography. N-terminally biotinylated NCoA3 coactivator peptide (SEQ ID NO:7) was chemically synthesized (Eurogentec). Assays were done in 384 well format (final assay volume of 25 μL/well) in a Tris/HCl buffer (pH 6.8) containing KCl, bovine serum albumin, Triton-X-100 and 1 μM 24(S)-25-epoxycholesterol as LXR-prestimulating agonist. Assay buffer was provided and test articles (potential LXR inverse agonists) were titrated to yield final assay concentrations of 50 μM, 16.7 μM, 5.6 μM, 1.9 μM, 0.6 μM, 0.2 μM, 0.07 μM, 0.02 μM, 0.007 μM, 0.002 μM with one vehicle control. Finally, a detection mix was added containing anti GST-Tb cryptate (CisBio; 610SAXLB) and Streptavidin-XL665 (CisBio; 610SAXLB) as fluorescent donor and acceptor, respectively, as well as the coactivator peptide and LXRβ-LBD protein (SEQ ID NO:4). The reaction was mixed thoroughly, equilibrated for 1 h at 4° C. and vicinity of LXRβ and coactivator peptide was detected by measurement of fluorescence in a VictorX4 multiplate reader (PerkinElmer Life Science) using 340 nm as excitation and 615 and 665 nm as emission wavelengths. Assays were performed in triplicates.
Final Assay Concentrations of Components:
240 mM KCl, 1 μg/μL BSA, 0.002% Triton-X-100, […] anti GST-Tb cryptate, 2.5 ng/μL Streptavidin-XL665, coactivator peptide (400 nM), LXRβ protein (530 μg/mL, i.e. 76 nM).

SMILES | EC50 [1] | EC50 [2] | EC50 [3]
Cc1ccc(S(=O)(=O)n2c(-c3cc(N4CC(C(=O)O)C4)ccc3Cl)c(-c3ccsc3C#N)c3cc(F)ccc32)cc1 [3/40] | < 100 nM | 100 to 1000 nM | 1000 to 10000 nM
Cc1cccc(C#N)c1-c1c(-c2cccc(-c3ccc(C(=O)O)cc3Cl)c2)n(S(=O)(=O)c2ccc(C(F)F)cc2)c2ccc(F)cc12 (single isomer, unassigned) [41/1, 2-chloro-3′-(3-(2-cyano-6-methylphenyl)-1-((4-(difluoro-methyl)phenyl)sulfonyl)-5-fluoro-1H-indol-2-yl)-[1,1′-biphenyl]-4-carboxylic Acid] | < 100 nM | < 100 nM | < 100 nM
N#Cc1sccc1-c1c(-c2cccc(-c3cc(F)c(C(=O)O)cc3Cl)c2)n(S(=O)(=O)c2ccc(CF)cc2)c2ccc(F)cc12 [11/7] | < 100 nM | < 100 nM | < 100 nM
O=C(O)c1ccc(-c2cccc(-c3c(-c4ncccc4N4CC(O)C4)c4cc(F)ccc4n3S(=O)(=O)c3ccc(C(F)F)cc3)c2)c(Cl)c1 [5/10] | 100 to 1000 nM | 100 to 1000 nM | 1000 to 10000 nM
CC(O)(C(=O)O)c1ccc(-c2cccc(-c3c(-c4c(C#N)cccc4C#N)c4cc(F)ccc4n3S(=O)(=O)c3ccc(C(F)F)cc3)c2)cc1 (centres unmarked) [11/59] | < 100 nM | < 100 nM | < 100 nM
Cc1cccc(C(F)F)c1-c1c(-c2cccc(-c3ccc(C(=O)O)cc3Cl)c2)n(S(=O)(=O)c2ccc(C(F)F)cc2)c2ccc(F)cc12 [11/38] | < 100 nM | < 100 nM | < 100 nM
Cc1ccc(S(=O)(=O)n2c(-c3cccc(-n4ccc(C(=O)O)cc4=O)c3)c(-c3ccsc3C#N)c3cc(F)ccc32)cc1 [5/5] | 100 to 1000 nM | 100 to 1000 nM | 100 to 1000 nM
COC(=O)c1ccc(-c2cccc(-c3c(-c4c(C)cccc4C#N)c4cc(F)ccc4n3S(=O)(=O)c3ccc(C(F)F)cc3)c2)c(Cl)c1 [1/122] | < 100 nM | < 100 nM | 100 to 1000 nM
N#Cc1sccc1-c1c(-c2cccc(-c3ccc(C(=O)NCCS(=O)(=O)O)cc3Cl)c2)n(S(=O)(=O)c2ccc(C(F)F)cc2)c2ccc(F)cc12 [10/3] | < 100 nM | < 100 nM | < 100 nM
Cc1ccc(S(=O)(=O)n2c(-c3cccc(-c4ccc(C(=O)NS(C)(=O)=O)cc4Cl)c3)c(-c3ccsc3C#N)c3cc(F)ccc32)cc1 [32/4] | < 100 nM | < 100 nM | < 100 nM
N#Cc1cccc(C#N)c1-c1c(-c2cccc(-c3ccc(S(=O)(=O)O)cc3Cl)c2)n(S(=O)(=O)c2ccc(C(F)F)cc2)c2ccc(F)cc12 [12/10] | < 100 nM | < 100 nM | < 100 nM
Cc1ccc(S(=O)(=O)n2c(-c3cccc([C@@H]4C[C@H]4C(=O)O)c3)c(-c3ccsc3C#N)c3ncccc32)cc1 (relative stereo) [Example 4, trans-2-(3-(3-(2-Cyanothioahen-3-yl)-1-tosyl-1H-pyrrolo[3,2-b]pyridin-2-yl)phenyl)cyclopropane-1-carboxylic Acid] | 100 to 1000 nM | < 100 nM | 1000 to 10000 nM
COc1c(C(=O)O)ccc(-c2cccc(-c3c(-c4ccsc4C#N)c4cc(F)ccc4n3S(=O)(=O)c3ccc(C)cc3)c2)c1Cl [12/5] | < 100 nM | < 100 nM | < 100 nM
Cc1cccc(C#N)c1-c1c(-c2cccc(-c3ccc(C(=O)O)cc3Cl)c2)n(S(=O)(=O)c2ccc(C(F)F)cc2)c2ccc(F)cc12 (single isomer, unassigned) [41/2, 2-chloro-3′-(3-(2-cyano-6-methylphenyl)-1-((4-(difluoro-methyl)phenyl)sulfonyl)-5-fluoro-1H-indol-2-yl)-[1,1′-biphenyl]-4-carboxylic Acid] | – | < 100 nM | < 100 nM
CC(O)(C(=O)O)c1ccc(-c2cccc(-c3c(-c4c(C#N)cccc4C#N)c4cc(F)ccc4n3S(=O)(=O)c3ccc(C(F)F)cc3)c2)c(Cl)c1 (centres unmarked) [11/60] | < 100 nM | < 100 nM | –
N#Cc1sccc1-c1c(-c2cccc(N3CC(C(=O)O)C3)c2)n(S(=O)(=O)c2ccc(OC(F)F)cc2)c2ccc(F)cc12 [3/11] | – | 100 to 1000 nM | 1000 to 10000 nM
Cc1ccc(S(=O)(=O)n2c(-c3cccc(-c4cnc(C(=O)O)cc4C)c3)c(-c3ccsc3C#N)c3cc(F)ccc32)cc1 [Example 36, 5-(3-(3-(2-Cyanothiophen-3-yl)-5-fluoro-1-tosyl-1/indol-2-yl)phenyl)-4-methylpicolinic Acid] | 100 to 1000 nM | – | 1000 to 10000 nM
